The source of these data is patent publication US20250144131A1, “POLYSACCHARIDE COMPOUND WITH A DEFINED MOLECULAR STRUCTURE FOR THE TREATMENT OF PULMONARY FIBROSIS” (SHENZHEN YANDAI INVESTMENT CO., LTD, priority 2023, published 2025).

One data set deals with H22 cells. Put plainly: Necrosis and apoptosis of H22 cells (GLP-4 combined with cisplatin). The format is cell-based. Further details: unit not given here. The conditions noted are these: 48 h, GLP-4 2 mg/mL, cisplatin 5 μg/mL. As to the method: The culture medium was discarded, cells were washed with PBS and digested with 0.125% trypsin. After digestion, the reaction was stopped with medium, and cells were transferred to EP tubes for counting using a cell counter. […] 24 h later, once cells adhered, drugs were added. 48 h after drug administration, cells were digested with trypsin, washed with PBS, and recounted. The corresponding volume of staining solution was added based on cell count, then incubated for 30 min in an incubator. After incubation, cells were chilled to stop staining and maintain viability, followed by imaging using a confocal microscope.
Based on preliminary study results, the dosing concentration for Ganoderma lucidum polysaccharide GLP-4 was set at 2 mg/mL, and for cisplatin (DDP) at 5 μg/mL.

Data set [1] is described as follows: Mortality and body weight of 4T1 breast tumor-bearing mice. The format is in vivo, BALB/c mice. As to the method: A suspension of 4T1 breast cancer cells was injected subcutaneously into the left shoulder back of 55 healthy female BALB/c mice to create solid tumor models. When the mean tumor volume reached approximately 240 mm^3, the mice were randomized into groups based on tumor volume, and were administered the respective drugs or drug solvents via oral gavage or intraperitoneal injection over 25 consecutive days. Longest and shortest diameters of tumors were measured every three days to calculate tumor volume, and mouse weights were recorded every three days. At the end of the experiment, tumors, spleens, and thymuses were harvested and weighed to calculate tumor, spleen, and thymus indices.

Each structure is given as a SMILES string. Marks after values point to notes of the source that are not given here.

In the case of `N.N.[Cl][Pt][Cl]` [Cisplatin, cisplatin], the “Apoptosis rate, Mean ± SD” value with H22 cells is 10.9 ± 1.6. The “Necrosis rate, Mean ± SD” value in the data set with H22 cells is 33.7 ± 8.2. In the data set on H22 cells, the “Total mortality rate, Mean ± SD” value is 44.7 ± 9.5. Further, the Apoptosis rate in the data set on H22 cells (single value 1) came out at 11.3; in the data set on H22 cells (single value 2), 8.8; in the data set with H22 cells (single value 3), 12.9. The Necrosis rate is 27.3 with H22 cells (single value 1), 28.6 with H22 cells (single value 2) and 45.4 in the data set on H22 cells (single value 3). For the same compound, the Total mortality rate with H22 cells (single value 1) is listed as 38.7; with H22 cells (single value 2), 37.3; in the data set with H22 cells (single value 3), 58.2. Besides, the Number of deaths in data set [1] (10 per group, cisplatin 4 mg/kg) amounted to 0. The same compound yielded a Survival time in data set [1] (25 days of dosing, cisplatin 4 mg/kg) of 25 ± 0 days. The Weight in data set [1] (D0, cisplatin 4 mg/kg) is 18.3 ± 1.3 g; in data set [1] (D3, cisplatin 4 mg/kg) it was 17.7 ± 1.1 g; in data set [1] (D6, cisplatin 4 mg/kg) it was 15.5 ± 1*^ g; in data set [1] (D9, cisplatin 4 mg/kg) it was 15 ± 1.4 g; in data set [1] (D12, cisplatin 4 mg/kg) it was 13.8 ± 0.9 g; in data set [1] (D15, cisplatin 4 mg/kg), 15 ± 1.1 g. The Weight was determined as 16.8 ± 1.4 g in data set [1] (D19, cisplatin 4 mg/kg); 18 ± 1.5 g in data set [1] (D22, cisplatin 4 mg/kg); 18.1 ± 1.6 g in data set [1] (D25, cisplatin 4 mg/kg). Besides, in data set [1] (cisplatin 4 mg/kg), the Mortality rate is given as 0.0%.
